Experiment [1] concerns the target T1, RORγ (Homo sapiens, UniProt P51449).
T1 sequence (P51449 269-508 limits assumed): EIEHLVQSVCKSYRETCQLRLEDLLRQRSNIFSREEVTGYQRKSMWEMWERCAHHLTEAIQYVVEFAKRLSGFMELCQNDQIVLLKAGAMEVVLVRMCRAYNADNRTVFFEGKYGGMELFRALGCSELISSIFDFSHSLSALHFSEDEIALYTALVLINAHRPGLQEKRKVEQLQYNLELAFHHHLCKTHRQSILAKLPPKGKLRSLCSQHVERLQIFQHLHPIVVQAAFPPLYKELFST
The experiment can be described thus: RORγ GAL4 reporter gene assay. Conditions: mean pIC50, inhibition of RORγ (GAL4-RORγ-LBD) in 293FT cells, luciferase readout, overnight incubation.

Experiment [2] concerns IL-17A production in anti-CD3/anti-CD28 stimulated peripheral blood mononuclear cells (PBMCs). The experiment can be described thus: Peripheral blood mononuclear cell (PBMC) IL-17 assay. Type of experiment: cell-based. As to conditions: Homo sapiens, 120 h, inhibition of IL-17A production, 5 days, IL-17 ELISA, read-out: mean pIC50 (converted). How it is done:
The assay procedure and results are described below.
This assay is designed to measure the levels of IL-17A secreted from anti-CD3/anti-CD28 stimulated PBMCs with the aim of measuring RORγ mediated inhibition of IL-17A production.
The assay medium consists of 90% RPMI 1640 (Lonza), 10% heat inactivated fetal bovin serum (FBS, Lonza) and 100 U/mL penicillin/streptomycin solution.
Anti-CD3 antibody (BD Pharmingen) was diluted to 10 μg/ml in PBS (Lonza). 30 μL of 10 μg/ml anti-CD3 solution was added to the inner 60 wells, excluding any negative control wells, of a 96-well cell culture treated U-bottom plate (Greiner). Plates were incubated overnight (16-24 hours) at 37° C. and 5% CO2.
Peripheral blood mononuclear cells were separated from buffy coats (Sanquin) using Ficoll-Paque PREMIUM separation medium (GE Healthcare Life Sciences) according to manufacturer's protocol and re-suspended in assay medium at 37° C.
Test compounds were diluted, starting from a 10 mM dimethylsulfoxide (DMSO) stock solution, to serial dilutions in DMSO at 200× the final test concentration. Subsequently, these solutions were diluted in two dilution steps in assay medium to 10× the final test concentration. The DMSO concentration of the 10× test compound solution was 5%.
Anti-CD28 antibody (BD Pharmingen) was diluted to 20 μg/mL in PBS. The PBMCs were diluted to a concentration of 2.5×10^6 cells/mL in assay medium at 37° C.
For compound screening, the anti-CD3 coated plates were washed three times with PBS, the wells were subsequently aspirated using vacuum. To each screening well 80 μL of the PBMC suspension, 10 μL of the anti-CD28 solution and 10 μL of the 10× test compound solution was added, resulting in the final test concentration with 0.5% DMSO. All outer wells were filled with assay medium to prevent evaporation. Plates were incubated for 5 days at 37° C. and 5% CO2.
After incubation the plates were spun down at 1500 rpm for 4 minutes and the supernatant was collected. Subsequently, the IL-17A levels in the supernatants was determined using an IL-17 ELISA kit (human IL-17 DuoSet, R&D systems) according to manufacturer's protocol.
The half maximum inhibitory concentration (IC50) values for the test compounds were calculated from the IL-17A signal using GraphPad Prism software (GraphPad Software).
On the technique in general: ELISA stands for enzyme-linked immunosorbent assay.

The source of these data is patent US9738600B2, “ROR gamma (RORγ) modulators” (LEAD PHARMA CEL MODELS IP B.V., priority 2013, dated 2017).

Each structure is given as a SMILES string. pIC50: −log10 of the molar value.

In general, pIC50 refers to −log10 of the IC50, conventionally taken in molar units. Lower therefore signals a high IC50. Compound `O=C(Cc1ccc(S(=O)(=O)CC2CC2)cc1)Nc1ccc(C(O)(C(F)(F)F)C(F)(F)F)cn1` [Example 107, 2-(4-((cyclopropylmethyl)sulfonyl)phenyl)-N-(5-(1,1,1,3,3,3-hexafluoro-2-hydroxypropan-2-yl)pyridin-2-yl)acetamide] had a pIC50 in experiment [1] of no less than 7.00. Moreover, the IC50 in experiment [2] is no more than 1 µM.
